Results as given in ChEMBL document CHEMBL4028838, “Structure-related protein tyrosine phosphatase 1B inhibition by naringenin derivatives” (Bioorg Med Chem Lett, 2017).

Experiments:
[1] = Inhibition of alpha-glucosidase (unknown origin)
HepG2 [2] = test: Anti-diabetic activity in insulin-resistant human HepG2 cells assessed as increase in insulin-stimulated 2-NBDG uptake at 10 uM pretreated for 24 hrs followed by 2-NBDG addition measured after 30 mins by fluorescence assay relative to control; assay type: functional
[3] = target: T1, Tyrosine-protein phosphatase non-receptor type 1 (Homo sapiens, UniProt P18031); test: Inhibition of PTP1B (unknown origin) using pNPP as substrate pretreated for 10 mins followed by substrate addition measured after 20 mins by spectrophotometric method
T1 sequence (P18031 whole entry): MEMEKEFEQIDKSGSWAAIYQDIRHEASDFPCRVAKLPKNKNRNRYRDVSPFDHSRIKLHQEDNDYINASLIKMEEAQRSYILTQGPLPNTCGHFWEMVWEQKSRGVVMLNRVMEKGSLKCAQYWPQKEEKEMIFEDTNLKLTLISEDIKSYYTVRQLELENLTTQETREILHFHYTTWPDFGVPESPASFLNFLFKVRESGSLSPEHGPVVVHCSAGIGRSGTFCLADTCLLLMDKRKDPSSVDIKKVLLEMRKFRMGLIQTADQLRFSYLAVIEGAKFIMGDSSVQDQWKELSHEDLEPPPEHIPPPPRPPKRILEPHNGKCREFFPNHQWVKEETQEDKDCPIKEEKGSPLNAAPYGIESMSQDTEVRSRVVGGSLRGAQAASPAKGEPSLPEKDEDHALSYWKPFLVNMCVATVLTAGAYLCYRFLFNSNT

HepG2 [4] = test: Anti-diabetic activity in insulin-resistant human HepG2 cells assessed as increase in insulin-stimulated 2-NBDG uptake at 50 uM pretreated for 24 hrs followed by 2-NBDG addition measured after 30 mins by fluorescence assay relative to control; assay type: functional
HepG2 [5] = test: Anti-diabetic activity in insulin-resistant human HepG2 cells assessed as increase in insulin-stimulated 2-NBDG uptake pretreated for 24 hrs followed by 2-NBDG addition measured after 30 mins by fluorescence assay; assay type: functional, cell-based

Q: For `C[C@H]1O[C@H](O[C@H]2[C@H](O)[C@@H](O)[C@@H](O[C@H]3[C@H](O)[C@@H](O)C(O)O[C@@H]3CO)O[C@@H]2CO)[C@H](O)[C@@H](O)[C@@H]1N[C@H]1C=C(CO)[C@@H](O)[C@H](O)[C@H]1O` (stereo partly drawn) [ACARBOSE], which IC50 [1] is on record?
A: 178 µM

Q: With `CN(C)C(=N)NC(=N)N` [METFORMIN] as the molecule, how does the Activity (HepG2 [2]) read?
A: 125%

Q: For `O=C1C[C@@H](c2ccc(O)cc2)Oc2cc(O)cc(O)c21` [NARINGENIN], which IC50 [3] is on record?
A: 130 µM

Q: And the Activity (HepG2 [4])?
A: 71.23%

Q: And the Activity (HepG2 [5])?
A: Dose-dependent effect

Q: What about the IC50 [1] of the same molecule?
A: 10.6 µM

Q: For `C[C@@H]1O[C@@H](O[C@H]2[C@H](Oc3cc(O)c4c(c3)O[C@H](c3ccc(O)cc3)CC4=O)O[C@H](CO)[C@@H](O)[C@@H]2O)[C@H](O)[C@H](O)[C@H]1O` [NARINGIN], which IC50 [3] is on record?
A: 91.8 µM

Q: What about the Activity (HepG2 [4]) of the same molecule?
A: 82.17%

Q: And the Activity (HepG2 [5])?
A: Dose-dependent effect

Q: And the IC50 [1]?
A: > 200 µM

Q: Which results are given for `C[C@@H]1O[C@@H](OC[C@H]2O[C@@H](Oc3cc(O)c4c(c3)O[C@H](c3ccc(O)cc3)CC4=O)[C@H](O)[C@@H](O)[C@@H]2O)[C@H](O)[C@H](O)[C@H]1O` [NARIRUTIN]?
A: IC50 [3]: 56.5 µM; Activity (HepG2 [4]): 86.93%; Activity (HepG2 [5]): Dose-dependent effect; IC50 [1]: > 200 µM

Q: With `O=C1C[C@@H](c2ccc(O)cc2)Oc2cc(O[C@@H]3O[C@H](CO)[C@@H](O)[C@H](O)[C@H]3O)cc(O)c21` [PRUNIN] as the molecule, how does the IC50 [3] read?
A: 17.5 µM

Q: And the Activity (HepG2 [4])?
A: 109.45%

Q: What about the Activity (HepG2 [5]) of the same molecule?
A: Dose-dependent effect

Q: And the IC50 [1]?
A: 106 µM
